Source: patent publication US5135955A, “Propanamine derivatives” (Eli Lilly and Company, priority 1989, dated 1992)
Counter-ions that a name gives are not always drawn.

Tested on: thromboplastin clotting time in human plasma
Experiment: prothrombin time test (thromboplastin clotting time in human plasma)
Format: biochemical
Settings: for plasma prothrombin time: 37° C., human plasma
Description: Briefly, to 0.1 ml of each of human plasma, normal saline and thromboplastin was added 0.03 ml of the test compound of the present invention (2 mg/ml in 50 percent methanol). The clotting time was measured at 37° C. with a Fibrometer.
^a Expressed in seconds
^b Concentration of compound tested in micrograms per milliliter of […]

[1] = 180 micrograms per milliliter of plasma
[2] = 45 micrograms per milliliter of plasma
[3] = 90 micrograms per milliliter of plasma
[4] = 22 micrograms per milliliter of plasma
[5] = 11 micrograms per milliliter of plasma

Structure (SMILES) | plasma prothrombin time [1] | plasma prothrombin time [2] | plasma prothrombin time [3] | also measured
CCCCCCCCOc1ccc(CC(CN)c2ccc(-c3ccccc3)cc2)cc1 (racemic) [Example 11, (±)-β-[[4-(Octyloxy)phenyl]methyl][1,1'-biphenyl-4-ethanamine hydrochloride] | 20 s | – | – | –
CCCCC(CC)COc1ccc(CC(CN)c2ccccc2)cc1.Cl (stereo not drawn) [Example 3, 4-[(2-Ethylhexyl)oxy]-β-phenylbenzenepropanamine hydrochloride] | – | – | – | prothrombin time (28 micrograms per ml): 16 s; prothrombin time (69 micrograms per ml): 25 s; prothrombin time (139 micrograms per ml): 80 s
CCCCCCCOc1ccc(CC(CN)c2ccccc2)cc1.Cl (stereo not drawn) [Example 5, 4-(Heptyloxy)-β-phenylbenzenepropanamine hydrochloride] | 190 s | 25 s | 53 s | –
Cl.NCC(Cc1ccc(-c2ccccc2)cc1)c1ccccc1 (stereo not drawn) [Example 7, β-Phenyl[1,1'-biphenyl]-4-propanamine hydrochloride] | > 300 s | 36 s | 200 s | plasma prothrombin time [4]: 25 s
COc1ccc(C(CN)Cc2ccc(-c3ccccc3)cc2)cc1OC (stereo not drawn) [Example 8, β-(3,4-Dimethoxy)phenyl[1,1'-biphenyl]-4-propanamine hydrochloride] | 130 s | 23 s | 45 s | –
COc1ccc(C(CN)Cc2ccc(-c3ccccc3)cc2)cc1 (stereo not drawn) [Example 9, β-(4-Methoxy)phenyl[1,1'-biphenyl]-4-propanamine] | 25 s | – | – | –
CCCCCCOc1ccc(CC(CN)c2ccc3ccccc3c2)cc1.Cl (stereo not drawn) [Example 10, β-[[4-(Hexyloxy)phenyl]methyl]-2-naphthaleneethanamine hydrochloride] | 60 s | – | – | –
CCCCCOc1ccc(CC(CN)c2ccc(-c3ccccc3)cc2)cc1.Cl (stereo not drawn) [Example 12, β-[[4-(Pentyloxy)phenyl]methyl][1,1'-biphenyl]-4-ethanamine hydrochloride] | 75 s | 21 s | 33 s | –
CCCCCCCOc1ccc(CC(CN)c2ccc(C(CN)Cc3ccc(OCCCCCCC)cc3)cc2)cc1.Cl.Cl (stereo not drawn) [Example 13, β,β'-Bis[[4-(heptyloxy)phenyl]methyl]-1,4-benzenediethanamine dihydrochloride] | 200 s | – | – | –
CC(C)c1ccc(CC(CN)c2ccccc2)cc1.Cl (stereo not drawn) [Example 14, 4-(1-Methylethyl)-β-phenylbenzenepropanamine hydrochloride] | 101 s | – | – | –
CCCCCOc1ccc(CC(CN)c2ccc(OC)c(OC)c2)cc1 (stereo not drawn) [Example 15, 4-(Pentyloxy)-β-3,4-(dimethoxy)phenylbenzenepropanamine] | 80 s | 21 s | 30 s | –
CCCCCCCCOc1ccc(CC(CN)c2ccc(OC)c(OC)c2)cc1 (stereo not drawn) [Example 17, 4-(Octyloxy)-β-(3,4-dimethoxy)phenylbezenenepropanamine hydrochloride] | 240 s | 48 s | 81 s | plasma prothrombin time [4]: 21 s
CCCCCCCCOc1ccc(CC(CN)c2cc(OC)c(OC)c(OC)c2)cc1 (stereo not drawn) [Example 18, 4-(Octyloxy)-β-(3,4,5-trimethoxy)phenylbenzenepropanamine hydrochloride] | 125 s | – | – | –
CCCCCOc1ccc(CC(CN)c2ccc(OC)c(OC)c2OC)cc1 (stereo not drawn) [Example 19, 4-(Pentyloxy)-β-(2,3,4-trimethoxy)phenylbenzenepropanamine hydrochloride] | 174 s | – | – | –
CCCCCCCOc1ccc(CC(CN)c2ccc(OC)c(OC)c2)cc1 (stereo not drawn) [Example 20, 4-(Heptyloxy)-β-(3,4-dimethoxy)phenylbenzenepropanamine] | > 200 s | 36 s | 74 s | –
COc1ccc(C(CN)Cc2ccc(OC)c3ccccc23)cc1OC (stereo not drawn) [Example 23, β(3,4-Dimethoxy)phenyl-1-(4-methoxy)naphthalenepropanamine hydrochloride] | 101 s | – | – | –
COc1ccc(C(CN)Cc2cccc3ccccc23)cc1 (stereo not drawn) [Example 24, β-(4-Methoxy)phenyl-1-naphthalenepropanamine] | 48 s | 22 s | 28 s | –
COc1cccc(C(CN)Cc2ccc3ccccc3c2)c1OC (stereo not drawn) [Example 25, β-(2,3-Dimethoxyphenyl)-2-naphthalenepropanamine] | 50 s | 22 s | 29 s | –

Structure (SMILES) | plasma prothrombin time [1] | plasma prothrombin time [2] | plasma prothrombin time [3] | also measured
CCCCCCOc1ccc(CC(CNCC)c2ccccc2)cc1 (stereo not drawn) [Example 28, N-Ethyl-4-(hexyloxy)-β-phenylbenzenepropanamine] | 110 s | 23 s | 35 s | plasma prothrombin time [4]: 17 s
CCCCCCOc1ccc(CC(CNC)c2ccccc2)cc1 (stereo not drawn) [Example 29, N-Methyl-4-(hexyloxy)-β-phenylbenzenepropanamine] | 87 s | 17 s | 31 s | –
CCCCCCOc1ccc(CC(CNC(C)C)c2ccccc2)cc1.Cl (stereo not drawn) [Example 30, N-Isopropyl-4-(hexyloxy)-β-phenylbenzenepropanamine hydrochloride] | 69 s | – | – | –
CCCCCCOc1ccc(CC(CNCCN(C)C)c2cc(OC)c(OC)c(OC)c2)cc1.Cl.Cl (stereo not drawn) [Example 31, N'-[3-[4-(Hexyloxy)phenyl]-2-(3,4,5-trimethoxyphenyl)-propyl]-N,N-dimethyl-1,2-ethanediamine dihydrochloride] | 150 s | – | – | –
Cl.NCC(Cc1ccc2c(c1)OCO2)c1ccc(-c2ccccc2)cc1 (stereo not drawn) [Example 32, β-[1,1'-Biphenyl]-4-yl-1,3-benzodioxole-5-propanamine hydrochloride] | 222 s | 27 s | 66 s | –
CNCC(Cc1ccc2c(c1)OCO2)c1ccccc1.Cl (stereo not drawn) [Example 33, N-Methyl-β-phenyl-1,3-benzodioxole-5-propanamine hydrochloride] | 18 s | – | – | –
Cl.NCC(Cc1ccc2c(c1)OCO2)c1ccccc1 (stereo not drawn) [Example 34, β-Phenyl-1,3-benzodioxole-5-propanamine hydrochloride] | 21 s | – | – | –
NCC(Cc1ccc(C(F)(F)F)cc1)c1ccccc1 (stereo not drawn) [Example 35, β-Phenyl-4-(trifluoromethyl)benzenepropanamine] | 68 s | – | – | –
NC(CCc1ccc(OCC2CCCCC2)cc1)C1CC1 (stereo not drawn) [Example 37, 4-(Cyclohexylmethoxy)-α-cyclopropylbenzenepropanamine hydrochloride] | – | – | – | plasma prothrombin time [5]: 22 s
CCC(CCc1ccc(OCC2CCCCC2)cc1)N(C)C (stereo not drawn) [Example 38, 4-(Cyclohexylmethoxy)-α-ethyl-N,N-dimethylbenzenepropanamine hydrochloride] | – | – | – | plasma prothrombin time [5]: 22 s
CCCCCCCOc1ccc(CCC(C)NCCN(C)C)cc1 (stereo not drawn) [Example 49, N'-[3-[4-(Heptyloxy)phenyl]-1-methylpropyl]-N,N-dimethyl-1,2-ethanediamine dihydrochloride] | 260 s | 36 s | 167 s | plasma prothrombin time [5]: 22 s; plasma prothrombin time [4]: 34 s
CCCCCCCCCCOc1ccc(CCC(C)N)cc1 (stereo not drawn) [Example 50, 4-(Decyloxy)-α-methylbenzenepropanamine hydrochloride] | 100 s | 21 s | 36 s | –
CCCCCCCOc1ccc(CCC(C)N)cc1 (stereo not drawn) [Example 51, 4-(Heptyloxy)-α-methylbenzenepropanamine hydrochloride] | > 300 s | 25 s | 52 s | –
CCCCCCCCCCCCOc1ccc(CCC(C)NCCN(C)C)cc1 (stereo not drawn) [Example 52, N'-[3-[4-(Dodecyloxy)phenyl]-1-methylpropyl]-N,N-dimethyl-1,2-ethanediaminedihydrochloride] | 87 s | – | 20 s | –
CCCCCCCCCOc1ccc(CCC(C)NCCN2CCOCC2)cc1 (stereo not drawn) [Example 53, N-[1-Methyl-3-[4-(nonyloxy)phenyl]propyl]-4-morpholineethanamine dihydrochloride] | 240 s | 23 s | 53 s | –
CCCCCCCCCOc1ccc(CCC(C)NCCN(C)C)cc1 (stereo not drawn) [Example 54, N,N-Dimethyl-N'-[1-methyl-3-[4-(nonyloxy)phenyl]propyl]-1,2-ethanediamine dihydrochloride] | > 300 s | 37 s | 99 s | –
CC(CCc1ccc(OCCC(C)(C)C)cc1)N(C)C.Cl (stereo not drawn) [Example 75, 4-(3,3-Dimethylbutoxy)-N,N,αtrimethylbenzenepropanamine hydrochloride] | 90 s | – | – | plasma prothrombin time (11 micrograms per milliliter of plasma, hydrochloride): 18 s; plasma prothrombin time (22 micrograms per milliliter of plasma, hydrochloride): 23 s; plasma prothrombin time (45 micrograms per milliliter of plasma, hydrochloride): 32 s; plasma prothrombin time (90 micrograms per milliliter of plasma, hydrochloride): 52 s
